Values after ≈ are worked out from the molar mass of the structure shown.
Key:
E. coli DNA gyrase = E. coli DNA gyrase (Escherichia coli, UniProt P0AES6); test: DNA gyrase supercoiling plate assay; type: biochemical; conditions: IC50 E. coli gyrase, supercoiling assay
S. aureus DNA gyrase = S. aureus DNA gyrase (Staphylococcus aureus, UniProt P0A0K8); test: DNA gyrase supercoiling plate assay; type: biochemical; conditions: read-out: RA (residual activity) S. aureus gyrase
E. coli topoisomerase IV = E. coli topoisomerase IV (Escherichia coli, UniProt P20083); test: topoisomerase IV relaxation plate assay; type: biochemical
[1] = target: S. aureus topoisomerase IV (Staphylococcus aureus, UniProt P0C1S7); test: topoisomerase IV relaxation plate assay; type: biochemical; conditions: read-out: RA (residual activity) S. aureus topo IV
S. aureus ATCC 29213 [2] = test: MIC, broth microdilution; type: cell-based, Staphylococcus aureus; conditions: for MIC: Staphylococcus aureus, ATCC29213, read-out: MIC S. aureus ATCC 29213, broth microdilution
E. faecium ATCC 35667 = test: MIC, broth microdilution; type: cell-based
E. coli ATCC 25922 = test: MIC, broth microdilution; type: cell-based; conditions: Escherichia coli, ATCC25922, read-out: MIC E. coli ATCC 25922
P. aeruginosa ATCC 27853 = test: MIC, broth microdilution; type: cell-based; conditions: Pseudomonas aeruginosa, ATCC27853, read-out: MIC P. aeruginosa ATCC 27853
A. baumannii ATCC 19606 = test: MIC, broth microdilution; type: cell-based; conditions: Acinetobacter baumannii, ATCC19606, read-out: MIC A. baumannii ATCC 19606
[3] = tested on: K. pneumoniae ATCC 700603; test: MIC, broth microdilution; type: cell-based; conditions: Klebsiella pneumoniae, ATCC700603, read-out: MIC K. pneumoniae ATCC 700603
K. aerogenes ATCC 13408 = test: MIC, broth microdilution; type: cell-based; conditions: Klebsiella aerogenes, ATCC13408, read-out: MIC K. aerogenes ATCC 13408
[4] = target: human DNA topoisomerase IIα (Homo sapiens, UniProt P11388); test: human DNA topoisomerase IIα inhibition; type: biochemical
A. baumannii DNA gyrase = A. baumannii DNA gyrase (Acinetobacter baumannii, UniProt A0ABX6CA01); test: DNA gyrase supercoiling assay; type: biochemical
P. aeruginosa DNA gyrase = P. aeruginosa DNA gyrase (Pseudomonas aeruginosa, UniProt Q9I7C2); test: DNA gyrase supercoiling assay; type: biochemical
[5] = tested on: S. aureus ATCC 43300 (MRSA); test: MIC, broth microdilution; type: cell-based; conditions: Staphylococcus aureus, ATCC43300|MRSA, read-out: MIC S. aureus ATCC 43300 (MRSA)
E. faecalis ATCC 29212 = test: MIC, broth microdilution; type: cell-based; conditions: Enterococcus faecalis, ATCC29212, read-out: MIC E. faecalis ATCC 29212
K. pneumoniae ATCC 10031 [6] = test: MIC, broth microdilution; type: cell-based; conditions: Klebsiella pneumoniae, ATCC10031, read-out: MIC K. pneumoniae ATCC 10031
[7] = tested on: E. spp. cloacae ATCC 13047; test: MIC, broth microdilution; type: cell-based; conditions: read-out: MIC E. spp. cloacae ATCC 13047
MRSA clinical isolate-1 = test: MIC against fluoroquinolone-resistant clinical isolate; type: cell-based; conditions: Staphylococcus aureus, read-out: MIC MRSA clinical isolate-1
MRSA clinical isolate-2 = test: as above; type: cell-based; conditions: Staphylococcus aureus, read-out: MIC MRSA clinical isolate-2
K. pneumoniae NCTC 13440 = test: as above; type: cell-based; conditions: Klebsiella pneumoniae, NCTC13440, read-out: MIC K. pneumoniae NCTC 13440
K. pneumoniae SE K14 = test: as above; type: cell-based; conditions: Klebsiella pneumoniae, SEK14, read-out: MIC K. pneumoniae SE K14
K. pneumoniae K9–K25 = test: as above; type: cell-based; conditions: Klebsiella pneumoniae, read-out: MIC K. pneumoniae K9–K25
K. pneumoniae SE K13 = test: as above; type: cell-based; conditions: Klebsiella pneumoniae, SEK13, read-out: MIC K. pneumoniae SE K13
S. aureus ATCC 29213 [8] = test: spontaneous frequency of resistance; type: cell-based, Staphylococcus aureus
K. pneumoniae ATCC 10031 [9] = test: spontaneous frequency of resistance; type: cell-based, Klebsiella pneumoniae
[10] = tested on: S. aureus ATCC 29213 adapted lines; test: MIC of adapted lines; conditions: colonies from frequency of resistance plates
[11] = read-out: RA (residual activity) Human topo IIα

E. coli topoisomerase IV, sequence (P20083 whole entry): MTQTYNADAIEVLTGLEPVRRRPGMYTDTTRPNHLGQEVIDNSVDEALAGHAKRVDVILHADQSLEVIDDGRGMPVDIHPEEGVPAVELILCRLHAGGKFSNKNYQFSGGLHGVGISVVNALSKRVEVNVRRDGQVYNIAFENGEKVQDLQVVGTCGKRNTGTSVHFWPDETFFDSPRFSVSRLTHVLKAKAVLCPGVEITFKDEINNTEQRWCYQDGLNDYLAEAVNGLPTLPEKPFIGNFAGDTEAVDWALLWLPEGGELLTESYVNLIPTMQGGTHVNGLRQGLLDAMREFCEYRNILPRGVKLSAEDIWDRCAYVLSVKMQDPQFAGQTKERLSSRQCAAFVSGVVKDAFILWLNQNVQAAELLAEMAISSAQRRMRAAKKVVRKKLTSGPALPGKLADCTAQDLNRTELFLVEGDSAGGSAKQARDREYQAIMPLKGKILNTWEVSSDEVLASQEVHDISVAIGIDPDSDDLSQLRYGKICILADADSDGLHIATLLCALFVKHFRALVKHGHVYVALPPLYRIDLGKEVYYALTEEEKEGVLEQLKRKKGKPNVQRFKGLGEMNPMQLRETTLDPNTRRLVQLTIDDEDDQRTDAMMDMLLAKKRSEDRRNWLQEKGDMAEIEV
E. coli topoisomerase IV, sequence (P0AFI2 whole entry partner): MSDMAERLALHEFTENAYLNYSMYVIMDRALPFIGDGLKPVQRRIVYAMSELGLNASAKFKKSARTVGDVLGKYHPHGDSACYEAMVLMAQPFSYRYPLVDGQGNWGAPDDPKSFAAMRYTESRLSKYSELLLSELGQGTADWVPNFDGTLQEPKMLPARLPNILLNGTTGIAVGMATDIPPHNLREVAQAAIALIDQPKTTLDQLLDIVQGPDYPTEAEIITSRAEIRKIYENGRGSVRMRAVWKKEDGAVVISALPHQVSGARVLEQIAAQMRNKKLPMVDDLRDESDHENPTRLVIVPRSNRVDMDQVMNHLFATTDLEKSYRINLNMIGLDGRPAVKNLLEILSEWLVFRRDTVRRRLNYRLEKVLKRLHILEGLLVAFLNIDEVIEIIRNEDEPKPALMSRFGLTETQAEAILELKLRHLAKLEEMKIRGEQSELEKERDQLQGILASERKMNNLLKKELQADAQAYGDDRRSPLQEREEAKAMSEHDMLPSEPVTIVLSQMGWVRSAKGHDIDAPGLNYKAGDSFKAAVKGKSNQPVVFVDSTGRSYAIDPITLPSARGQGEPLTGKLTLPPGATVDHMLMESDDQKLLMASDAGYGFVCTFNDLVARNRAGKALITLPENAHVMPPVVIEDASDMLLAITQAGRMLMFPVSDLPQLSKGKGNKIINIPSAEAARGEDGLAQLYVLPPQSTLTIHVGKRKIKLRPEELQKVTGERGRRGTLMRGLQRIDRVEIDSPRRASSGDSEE
human DNA topoisomerase IIα, sequence (P11388 whole entry): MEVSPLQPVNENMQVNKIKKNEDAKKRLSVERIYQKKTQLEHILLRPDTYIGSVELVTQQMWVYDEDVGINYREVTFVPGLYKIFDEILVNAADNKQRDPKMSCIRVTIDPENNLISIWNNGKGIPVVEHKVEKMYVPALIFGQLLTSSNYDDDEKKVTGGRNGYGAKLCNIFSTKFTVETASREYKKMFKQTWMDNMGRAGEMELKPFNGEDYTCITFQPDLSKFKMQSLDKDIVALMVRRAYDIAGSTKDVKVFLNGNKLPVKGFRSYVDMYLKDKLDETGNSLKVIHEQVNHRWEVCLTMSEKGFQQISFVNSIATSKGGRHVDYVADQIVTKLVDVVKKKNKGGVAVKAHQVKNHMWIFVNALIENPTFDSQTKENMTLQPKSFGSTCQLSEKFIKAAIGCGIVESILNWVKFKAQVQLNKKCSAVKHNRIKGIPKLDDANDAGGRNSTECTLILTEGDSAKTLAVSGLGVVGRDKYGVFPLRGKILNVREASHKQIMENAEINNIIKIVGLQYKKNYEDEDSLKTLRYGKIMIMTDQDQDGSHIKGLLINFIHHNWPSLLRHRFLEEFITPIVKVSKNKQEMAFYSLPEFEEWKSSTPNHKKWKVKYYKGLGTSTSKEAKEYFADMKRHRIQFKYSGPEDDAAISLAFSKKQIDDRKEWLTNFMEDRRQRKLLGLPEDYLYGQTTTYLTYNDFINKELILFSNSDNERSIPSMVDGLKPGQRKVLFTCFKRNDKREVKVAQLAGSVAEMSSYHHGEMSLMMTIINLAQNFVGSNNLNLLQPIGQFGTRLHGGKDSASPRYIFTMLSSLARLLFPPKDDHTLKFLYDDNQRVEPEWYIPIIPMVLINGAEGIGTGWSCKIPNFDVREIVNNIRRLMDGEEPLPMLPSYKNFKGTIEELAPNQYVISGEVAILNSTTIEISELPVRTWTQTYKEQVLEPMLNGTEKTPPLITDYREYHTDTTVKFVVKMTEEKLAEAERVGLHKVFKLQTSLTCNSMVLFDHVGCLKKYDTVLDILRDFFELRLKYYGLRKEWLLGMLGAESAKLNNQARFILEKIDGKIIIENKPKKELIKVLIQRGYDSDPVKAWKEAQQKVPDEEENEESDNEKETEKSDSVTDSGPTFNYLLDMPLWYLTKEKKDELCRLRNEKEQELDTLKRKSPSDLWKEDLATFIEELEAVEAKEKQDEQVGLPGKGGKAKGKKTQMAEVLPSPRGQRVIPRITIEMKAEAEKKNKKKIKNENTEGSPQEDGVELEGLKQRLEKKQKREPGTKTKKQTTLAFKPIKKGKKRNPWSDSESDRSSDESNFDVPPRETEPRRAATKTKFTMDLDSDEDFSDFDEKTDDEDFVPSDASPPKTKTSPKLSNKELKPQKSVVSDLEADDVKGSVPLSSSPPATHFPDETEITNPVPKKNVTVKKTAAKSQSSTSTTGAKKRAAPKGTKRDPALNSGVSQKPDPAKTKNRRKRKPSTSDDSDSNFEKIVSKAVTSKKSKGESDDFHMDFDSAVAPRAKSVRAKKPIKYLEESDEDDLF
S. aureus topoisomerase IV, sequence (P0C1S7 whole entry): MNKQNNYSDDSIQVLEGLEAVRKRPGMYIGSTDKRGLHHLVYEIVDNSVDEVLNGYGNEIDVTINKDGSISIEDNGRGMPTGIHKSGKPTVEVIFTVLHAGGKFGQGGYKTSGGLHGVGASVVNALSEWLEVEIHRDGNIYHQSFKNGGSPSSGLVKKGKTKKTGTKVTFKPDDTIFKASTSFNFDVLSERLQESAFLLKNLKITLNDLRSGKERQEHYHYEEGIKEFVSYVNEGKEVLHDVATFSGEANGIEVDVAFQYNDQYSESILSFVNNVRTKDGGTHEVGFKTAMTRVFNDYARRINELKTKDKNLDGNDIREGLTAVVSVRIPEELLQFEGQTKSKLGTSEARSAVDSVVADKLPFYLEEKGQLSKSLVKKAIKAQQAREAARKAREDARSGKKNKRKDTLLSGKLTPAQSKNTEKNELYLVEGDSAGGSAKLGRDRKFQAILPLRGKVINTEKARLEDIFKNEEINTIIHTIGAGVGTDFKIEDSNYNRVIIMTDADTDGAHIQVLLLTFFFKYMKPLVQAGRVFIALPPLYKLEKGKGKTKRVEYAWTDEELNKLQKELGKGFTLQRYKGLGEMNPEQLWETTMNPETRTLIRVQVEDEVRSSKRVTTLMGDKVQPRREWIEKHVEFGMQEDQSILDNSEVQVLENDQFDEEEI
S. aureus topoisomerase IV, sequence (P0C1U9 whole entry partner): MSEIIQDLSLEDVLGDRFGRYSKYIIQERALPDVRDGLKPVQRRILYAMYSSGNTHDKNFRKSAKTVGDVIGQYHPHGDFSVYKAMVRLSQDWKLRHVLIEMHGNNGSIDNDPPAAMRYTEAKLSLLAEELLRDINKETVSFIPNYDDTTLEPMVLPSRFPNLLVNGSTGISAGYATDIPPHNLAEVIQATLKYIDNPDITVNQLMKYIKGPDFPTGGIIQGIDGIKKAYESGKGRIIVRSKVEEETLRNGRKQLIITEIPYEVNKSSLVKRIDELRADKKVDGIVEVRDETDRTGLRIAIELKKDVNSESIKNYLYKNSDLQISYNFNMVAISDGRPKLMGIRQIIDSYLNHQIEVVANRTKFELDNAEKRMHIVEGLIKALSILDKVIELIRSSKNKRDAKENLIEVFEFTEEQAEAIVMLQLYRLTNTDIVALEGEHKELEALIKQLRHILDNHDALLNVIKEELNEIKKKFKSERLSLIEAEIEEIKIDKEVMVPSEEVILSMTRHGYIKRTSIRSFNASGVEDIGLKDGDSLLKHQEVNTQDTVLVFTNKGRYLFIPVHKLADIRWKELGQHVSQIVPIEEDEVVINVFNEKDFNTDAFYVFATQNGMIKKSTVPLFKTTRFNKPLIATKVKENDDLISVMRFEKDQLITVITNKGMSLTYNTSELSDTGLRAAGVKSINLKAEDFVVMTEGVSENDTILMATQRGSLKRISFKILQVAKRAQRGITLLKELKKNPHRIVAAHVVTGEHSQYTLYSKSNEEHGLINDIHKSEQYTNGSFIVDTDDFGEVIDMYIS

| SMILES | IC50 (E. coli DNA gyrase) [nM] | remaining activity at 1 µM [1] [%] | MIC (S. aureus ATCC 29213 [2]) [µg/mL] | MIC E. faecium ATCC 35667 (E. faecium ATCC 35667) [µg/mL] | MIC (E. coli ATCC 25922) [µg/mL] | MIC (P. aeruginosa ATCC 27853) [µg/mL] | MIC (A. baumannii ATCC 19606) [µg/mL] | MIC [3] [µg/mL] | MIC (K. aerogenes ATCC 13408) [µg/mL] | IC50 (E. coli topoisomerase IV) [nM] | MIC [5] [µg/mL] | MIC (E. faecalis ATCC 29212) [µg/mL] | MIC (K. pneumoniae ATCC 10031 [6]) [µg/mL] | MIC [7] [µg/mL] | MIC (MRSA clinical isolate-1) [µg/mL] | MIC (MRSA clinical isolate-2) [µg/mL] | MIC (K. pneumoniae NCTC 13440) [µg/mL] | MIC (K. pneumoniae SE K14) [µg/mL] | MIC (K. pneumoniae K9–K25) [µg/mL] | other results |
| --- | --- | --- | --- | --- | --- | --- | --- | --- | --- | --- | --- | --- | --- | --- | --- | --- | --- | --- | --- | --- |
| Cc1[nH]c(C(=O)Nc2ccc(C(=O)O)cc2N2CCN(C(=O)OC(C)(C)C)CC2)c(Cl)c1Cl [Compound 18a, 3-(4-(tert-Butoxycarbonyl)piperazin-1-yl)-4-(3,4-dichloro-5-methyl-1H-pyrrole-2-carboxamido)benzoic acid] | 159 | 21 | 4 to 32 (≈ 8.04 to 64.3 µM) | 16 (≈ 32.2 µM) | > 32 | > 32 | > 32 | > 32 | > 32 |  |  |  |  |  |  |  |  |  |  | remaining activity at 1 µM (S. aureus DNA gyrase): 54%; remaining activity at 1 µM (E. coli topoisomerase IV; read-out: RA (residual activity) E. coli topo IV): 99%; MIC S. aureus ATCC 29213 (S. aureus ATCC 29213 [2]; broth microdilution): 4 µg/mL (≈ 8.04 µM) |
| Cc1[nH]c(C(=O)Nc2ccc(C(=O)O)cc2N2CCCC(CN)C2)c(Cl)c1Cl.Cl (stereo not shown) [Compound 20i, (1-(5-Carboxy-2-(3,4-dichloro-5-methyl-1H-pyrrole-2-carboxamido)phenyl)piperidin-3-yl)methanaminium chloride] | 6.34 | 0 |  | 32 | > 32 | > 32 | > 32 | > 32 | > 32 | 143 |  |  |  |  |  |  |  |  |  | remaining activity at 0.1 µM (S. aureus DNA gyrase): 28%; remaining activity at 100 µM [4, 11]: 28% |
| Cc1[nH]c(C(=O)Nc2ccc(-c3n[nH]c(=O)o3)cc2N2CC[C@H](N)C2)c(Cl)c1Cl.Cl [Compound 23b, (S)-1-(2-(3,4-Dichloro-5-methyl-1H-pyrrole-2-carboxamido)-5-(5-oxo-4,5-dihydro-1,3,4-oxadiazol-2-yl)phenyl)pyrrolidin-3-aminium chloride] |  |  | 1 |  |  | 32 |  | > 32 | > 32 |  | 2 | 1 | 0.0625 | 32 | 4 | 2 | > 64 | > 64 | > 64 | IC50 [4]: 86300 nM; IC50 (A. baumannii DNA gyrase): 15.3 nM; IC50 (P. aeruginosa DNA gyrase): 3.63 nM |
| Cc1[nH]c(C(=O)Nc2ccc(-c3n[nH]c(=O)o3)cc2N2CCC[C@H](N)C2)c(Cl)c1Cl.Cl [Compound 23c, (S)-1-(2-(3,4-Dichloro-5-methyl-1H-pyrrole-2-carboxamido)-5-(5-oxo-4,5-dihydro-1,3,4-oxadiazol-2-yl)phenyl)piperidin-3-aminium chloride] |  |  | 2 |  |  |  | 4 | > 32 | > 32 | 448 | 2 | 2 | 0.25 | > 64 | 4 | 2 | > 64 | > 64 | > 64 | remaining activity at 50 µM [4, 11]: 90%; MIC (K. pneumoniae SE K13): 32 µg/mL; resistance-proneness compared to novobiocin (S. aureus ATCC 29213 [8]): significantly less resistance-prone compared to novobiocin; resistance-proneness compared to novobiocin (K. pneumoniae ATCC 10031 [9]): significantly less resistance-prone compared to novobiocin; change in MIC values compared to the ancestor [10]: 4 fold |
